Values quoted from earlier work, collected in paper PMC6337720 (Inorganic chemistry, 2018).

Conditions: aerated CH3CN

**Q.** Which “ΦΔ singlet oxygen quantum yield of the standard” value does the source give for `F[P-](F)(F)(F)(F)F.F[P-](F)(F)(F)(F)F.[Ru+2].c1ccc(-c2ccccn2)nc1.c1ccc(-c2ccccn2)nc1.c1ccc(-c2ccccn2)nc1` [[Ru(bpy)3](PF6)2] here?
**A.** 0.56
